Data taken from patent US9365522B2, “Pyrazole amide derivative” (AMGEN INC., priority 2015, dated 2016).

Target: T1, ligand binding domain of human ROR gamma (Homo sapiens, UniProt P51449)
T1 construct: NM_001001523; expressed in transfected cells; host or cells: HEK293T
T1 sequence (P51449 247-497 isoform P51449-2): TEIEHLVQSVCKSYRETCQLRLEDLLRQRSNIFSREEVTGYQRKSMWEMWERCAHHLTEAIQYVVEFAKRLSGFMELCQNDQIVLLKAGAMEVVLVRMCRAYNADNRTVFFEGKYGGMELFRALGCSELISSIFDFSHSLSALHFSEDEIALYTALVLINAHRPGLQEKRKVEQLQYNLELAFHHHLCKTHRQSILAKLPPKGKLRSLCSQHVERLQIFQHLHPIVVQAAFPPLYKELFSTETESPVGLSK
Test: ROR gamma reporter gene assay (GAL4-RORγ LBD luciferase, Dual-Glo)
Type: cell-based
Details: HEK293T cells transfected with pM-ROR gamma, 8 concentrations 3.5 nM to 10.5 μM, 24 h incubation; read-out: result (pIC50, inhibition of RORγ transcriptional activity) (converted)
Outline: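 HEK293T cells were co-transfected with GAL4 DBD fused to human RORγ LBD (aa 247-497), a 5×UAS firefly luciferase reporter and CMV-driven renilla luciferase, in medium with 10% charcoal-stripped FBS.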

Row | Compound | IC50
1 | CCC(C)(C)CN(CC(=O)c1c(Cl)cncc1Cl)C(=O)c1cnn([C@H]2CC[C@](C)(C(=O)O)CC2)c1C(F)(F)F [Example 286, trans-4-(4-((2-(3,5-dichioropyridin-4-yl)-2-oxoethyl)-(2,2-dimethylbutyl)carbamoyl)-5-(trifluoromethyl)pyrazol-1-yl)-1-methylcyclohexane-1-carboxylic acid] | 9120 pM
2 | CCC(C)(C)CN(CC(=O)c1c(Cl)cncc1Cl)C(=O)c1cnn(C23CCC(C(=O)O)(CC2)CC3)c1C(F)(F)F [Example 288, 4-(4-((2-(3,5-dichloropyridin-4-yl)-2-oxoethyl)-(2,2-dimethylbutyl)carbamoyl)-5-(trifluoromethyl)pyrazol-1-yl)bicyclo[2.2.2]octane-1-carboxylic acid] | 11700 pM
3 | CC(C)(C)OCCN(CC(=O)c1c(Cl)cc(Cl)cc1Cl)C(=O)c1cnn([C@H]2CC[C@](C)(C(=O)O)CC2)c1C(F)(F)F [Example 293, trans-1-methyl-4-(4-(2-((2-methylpropan-2-yl)oxy)ethyl-(2-oxo-2-(2,4,6-trichlorophenyl)ethyl)carbamoyl)-5-(trifluoromethyl)pyrazol-1-yl)cyclohexane-1-carboxylic acid] | 33100 pM
4 | CC(C)(C)CN(CC(=O)c1c(F)cncc1Cl)C(=O)c1cnn([C@H]2CC[C@](C)(C(=O)O)CC2)c1C(F)(F)F [Example 294, trans-4-(4-((2-(3-chloro-5-fluoropyridin-4-yl)-2-oxoethyl)-(2,2-dimethylpropyl)carbamoyl)-5-(trifluoromethyl)pyrazol-1-yl)-1-methylcyclohexane-1-carboxylic acid] | 49000 pM
5 | CC(C)(C)CN(CC(=O)c1c(F)cccc1Cl)C(=O)c1cnn([C@H]2CC[C@](C)(C(=O)O)CC2)c1C(F)(F)F [Example 297, trans-4-(4-((2-(2-chloro-6-fluorophenyl)-2-oxoethyl)-(2,2-dimethylpropyl)carbamoyl)-5-(trifluoromethyl)pyrazol-1-yl)-1-methylcyclohexane-1-carboxylic acid] | 66100 pM
6 | O=C(CN(CC1(F)CCCC1)C(=O)c1cnn(C23CCC(C(=O)O)(CC2)CC3)c1C(F)(F)F)c1c(Cl)cc(Cl)cc1Cl [Example 298, 4-(4-((1-fluorocyclopentyl)methyl-(2-oxo-2-(2,4,6-trichlorophenyl)ethyl)carbamoyl)-5-(trifluoromethyl)pyrazol-1-yl)bicyclo[2.2.2]octane-1-carboxylic acid] | 12900 pM
7 | O=C(CN(CC1(F)CCCC1)C(=O)c1cnn(C23CCC(C(=O)O)(CC2)CC3)c1C(F)(F)F)c1c(Cl)cncc1Cl [Example 299, 4-(4-((2-(3,5-dichloropyridin-4-yl)-2-oxoethyl)-((1-fluorocyclopentyl)methyl)carbamoyl)-5-(trifluoromethyl)pyrazol-1-yl)bicyclo[2.2.2]octane-1-carboxylic acid] | 20900 pM
8 | Cc1cc(Cl)c(C(=O)CN(CC2(F)CCCC2)C(=O)c2cnn(C34CCC(C(=O)O)(CC3)CC4)c2C(F)(F)F)c(Cl)c1 [Example 300, 4-(4-((2-(2,6-dichloro-4-methyIphenyl)-2-oxoethyl)-((1-fluorocyclopentyl)methyl)carbamoyl)-5-(trifluoromethyl)pyrazol-1-yl)bicyclo[2.2.2]octane-1-carboxylic acid] | 24000 pM
9 | CN1C2CCC1CC(N(CC(=O)c1c(Cl)cc(F)cc1Cl)C(=O)c1cnn([C@H]3CC[C@](C)(C(=O)O)CC3)c1C(F)(F)F)C2 (stereo partly drawn) [Example 303, trans-4-(4-((2-(2,6-dichloro-4-fluorophenyl)-2-oxoethyl)-(8-methyl-8-azabicyclo[3.2.1]octan-3-yl)carbamoyl)-5-(trifluoromethyl)pyrazol-1-yl)-1-methylcyclohexane-1-carboxylic acid] | > 3.47e+06 pM
10 | C[C@]1(C(=O)O)CC[C@H](n2ncc(C(=O)N(CC(=O)c3c(Cl)cc(F)cc3Cl)C3CC4CCC(C3)N4)c2C(F)(F)F)CC1 (stereo partly drawn) [Example 304, trans-4-(4-(8-azabicyclo [3.2.1]octan-3-yl-(2-[2,6-dichloro-4-fluorophenyl)-2-oxoethyl)carbamoyl)-5-(trifluoromethyl)pyrazol-1-yl)-1-methylcyclohexane-1-carboxylic acid] | > 1.05e+07 pM
11 | CC(C)N1C2CCC1CC(N(CC(=O)c1c(Cl)cc(F)cc1Cl)C(=O)c1cnn([C@H]3CC[C@](C)(C(=O)O)CC3)c1C(F)(F)F)C2 (stereo partly drawn) [Example 305, trans-4-(4-((2-(2,6-dichloro-4-fluorophenyl)-2-oxoethyl)-(8-propan-2-yl-8-azabicyclo[3.2.1]octan-3-yl)carbamoyl)-5-(trifluoromethyl)pyrazol-1-yl)-1-methylcyclohexane-1-carboxylic acid] | > 1.05e+07 pM
12 | Cc1cc(Cl)c(C(=O)CN(Cc2cc(F)cc(F)c2)C(=O)c2cnn([C@H]3CC[C@H](C(=O)O)CC3)c2C(F)(F)F)c(C#N)c1 [Example 307, trans-4-(4-((2-(2-chloro-6-cyano-4-methylphenyl)-2-oxoethyl)-((3,5-difluorophenyl)methyl)carbamoyl)-5-(trifluoromethyl)pyrazol-1-yl)cyclohexane-1-carboxylic acid] | 8.32e+06 pM

Further lines, results first:

Row | IC50 | Compound
13 | 1.2e+06 pM | CCC(CC)N(CC(=O)c1c(Cl)cncc1Cl)C(=O)c1cnn([C@H]2CC[C@](C)(C(=O)O)CC2)c1C(F)(F)F [Example 287, trans-4-(4-((2-(3,5-dichloropyridin-4-yl)-2-oxoethyl)-pentan-3-ylcarbamoyl)-5-(trifluoromethyl)pyrazol-1-yl)-1-methylcyclohexane-1-carboxylic acid]
14 | 93300 pM | C[C@]1(C(=O)O)CC[C@H](n2ncc(C(=O)N(CC(=O)c3c(Cl)cc(Cl)cc3Cl)C3CCC4(CC3)COC4)c2C(F)(F)F)CC1 [Example 289, trans-1-methyl-4-(4-(2-oxaspiro[3.5]nonan-7-yl-(2-oxo-2-(2,4,6-trichlorophenyl)ethyl)carbamoyl)-5-(trifluoromethyl)pyrazol-1-yl)cyclohexane-1-carboxylic acid]
15 | 191000 pM | CC1(C)CCC(N(CC(=O)c2c(Cl)cc(F)cc2Cl)C(=O)c2cnn([C@H]3C[C@H](C(=O)O)C3)c2C(F)(F)F)CC1 [Example 290, trans-3-(4-((2-(2,6-dichloro-4-fluorophenyl)-2-oxoethyl)-(4,4-dimethylcyclohexyl)carbamoyl)-5-(trifluoromethyl)pyrazol-1-yl)cyclobutane-1-carboxylic acid]
16 | 1.02e+06 pM | CC1(C)CCC(N(CC(=O)c2c(Cl)cc(F)cc2Cl)C(=O)c2cnn([C@H]3C[C@@H](C(=O)O)C3)c2C(F)(F)F)CC1 [Example 291, cis-3-(4-((2-(2,6-dichloro-4-fluorophenyl)-2-oxoethyl)-(4,4-dimethylcyclohexyl)carbamoyl)-5-(trifluoromethyl)pyrazol-1-yl)cyclobutane-1-carboxylic acid]
17 | 47900 pM | CC(C)(C)OCCN(CC(=O)c1c(Cl)cc(F)cc1Cl)C(=O)c1cnn([C@H]2CC[C@](C)(C(=O)O)CC2)c1C(F)(F)F [Example 292, trans-4-(4-((2-(2,6-dichloro-4-fluorophenyl)-2-oxoethyl)-(2-((2-methylpropan-2-yl)oxy)ethyl)carbamoyl)-5-(trifluoromethyl)pyrazol-1-yl)-1-methylcyclohexane-1-carboxylic acid]
18 | 5.62e+06 pM | CN1CCC(N(CC(=O)c2c(Cl)cc(F)cc2Cl)C(=O)c2cnn([C@H]3CC[C@](C)(C(=O)O)CC3)c2C(F)(F)F)CC1 [Example 295, trans-4-(4-((2-(2,6-dichloro-4-fluorophenyl)-2-oxoethyl)-(1-methylpiperidin-4-yl)carbamoyl)-5-(trifluoromethyl)pyrazol-1-yl)-1-methylcyclohexane-1-carboxylic acid]
19 | > 1.05e+07 pM | CC(C)N1CCC(N(CC(=O)c2c(Cl)cc(F)cc2Cl)C(=O)c2cnn([C@H]3CC[C@](C)(C(=O)O)CC3)c2C(F)(F)F)CC1 [Example 296, trans-4-(4-((2-(2,6-dichloro-4-fluorophenyl)-2-oxoethyl)-(1-propan-2-ylpiperidin-4-yl)carbamoyl)-5-(trifluoromethyl)pyrazol-1-yl)-1-methylcyclohexane-1-carboxylic acid]
20 | 186000 pM | CC1(C)CCC(N(CC(=O)c2c(Cl)cc(F)cc2Cl)C(=O)c2cnn([C@H]3CC[C@@](C)(C(=O)O)CC3)c2C(F)(F)F)CC1 [Example 301, cis-4-(4-((2-(2,6-dichloro-4-fluorophenyl)-2-oxoethyl)-(4,4-dimethylcyclohexyl)carbamoyl)-5-(trifluoromethyl)pyrazol-1-yl)-1-methylcyclohexane-1-carboxylic acid]
21 | 14800 pM | CCC(C)(C)CN(CC(=O)c1c(Cl)cc(F)cc1Cl)C(=O)c1cnn([C@H]2CC[C@](C)(C(=O)O)CC2)c1C(F)(F)F [Example 302, trans-4-(4-((2-(2,6-dichloro-4-fluorophenyl)-2-oxoethyl)-(2,2-dimethylbutyl)carbamoyl)-5-(trifluoromethyl)pyrazol-1-yl)-1-methylcyclohexane-1-carboxylic acid]
22 | 8320 pM | CCC(C)(C)CN(CC(=O)c1c(Cl)cc(Cl)cc1Cl)C(=O)c1cnn([C@H]2CC[C@](C)(C(=O)O)CC2)c1C(F)(F)F [Example 306, trans-4-(4-(2,2-dimethylbutyl-(2-oxo-2-(2,4,6-trichlorophenyl)ethyl)carbamoyl)-5-(trifluoromethyl)pyrazol-1-yl)-1-methylcyclohexane-1-carboxylic acid]
